The assay deals with amnesia produced by an electroconvulsive shock. As to the kind of experiment: Reversal of amnesia produced by electroconvulsive shock (shelf-box foot shock memory test). It is filed as in vivo, male mice (Carworth, CF-1 strain). The settings on record: mice, oral. The protocol:
The effectiveness of the aforementioned compounds is determined by the test given below which is designed to show the compound's ability to reverse amnesia produced by an electroconvulsive shock.
One hundred male mice (Carworth, CF-1 strain, 19-21 g at time of shipment) are divided into five groups of 20 mice each. Each mouse is placed, one at a time, on a small shelf attached to the outside wall of a test box. In this position the mouse is suspended in space. Therefore, the mouse is motivated to step from the shelf through a conveniently placed small hole into the interior of the box. As soon as the mouse has all four feet within the semidarkened interior of the box, the grid floor of the box is electrified (1.5 milliamps, 3 second duration) to produce a strong pain-fear reaction from the animal. About five seconds thereafter, the mouse is removed from the test box and placed in a group holding cage.
Two hours after the above training, the mice are given a single electroconvulsive shock produced by 20 milliamps delivered for 1.0 seconds through the ears. Immediately thereafter, the mice are returned to the holding cage.
Two hours after the convulsive treatment, the mice are administered orally through a […] with the chemical being assessed. Usually three doses of the chemical will be tested at a time.
One hour after the drug treatment, the mice are tested for memory of the painful foot shock received within the shelf-box apparatus. This testing is accomplished by once again placing each mouse on the small shelf attached to the test box. Any mouse that stays on the shelf for 60 seconds without entering the box is counted as remembering the painful foot shock received within the box five hours earlier. Any mouse entering the box within the 60-second period is counted as having amnesia for the painful event.
The five groups of mice are treated as follows:
The percentage of amnesia reversal is determined as follows for each drug group: [formula]
The following table reports the percent of amnesia reversal of orally administered [(5-(2-aminomethyl)-5-methyl-lH- imidazol-1-yl)-1,3-dimethyl-lH-pyrazol-4-yi](2-chlorophenyl)methanone dihydrochloride.

Structures can show the parent of a compound that is named as a salt.

As for `Cc1nn(C)c(-n2c(C)cnc2CN)c1C(=O)c1ccccc1Cl` [Example 1, [5-((2-aminomethyl)-5-methyl-lH-imidazol-1-yl)-1,3-dimethyl-1H-pyrazol-4-yl] (2-chlorophenyl) methanone dihydrochloride], the “% Amnesia Reversal” value by setting is: (dose 0.63 mg/kg) 20%; (dose 1.25 mg/kg) 40%; (dose 2.50 mg/kg) 40%; (dose 5.00 mg/kg) 62%; (dose 20.00 mg/kg) 87%; (dose 80.00 mg/kg) 44%. Further, the Rating entry runs as follows: (dose 0.63 mg/kg) “N (0 to 29 percent (inactive = N))”; (dose 1.25 mg/kg) “A (40 percent or more (active = A))”; (dose 2.50 mg/kg) “A (40 percent or more (active = A))”; (dose 5.00 mg/kg) “A (40 percent or more (active = A))”; (dose 20.00 mg/kg) “A (40 percent or more (active = A))”; (dose 80.00 mg/kg) “A (40 percent or more (active = A))”.
For the compound `Cc1nn(C)c(-n2ccnc2CN2CCCC2)c1C(=O)c1ccccc1Cl` [Example 3, (2-chlorophenyl)-[1,3-dimethyl-5-[2-(1-pyrrolidinylmethyl)-1H-imidazol--yl]-1H-pyrazol-4-yl]methanone dihydrochloride], the “Percent Amnesia Reversal” value (dose 1 mg/kg) worked out at 79%, the “Percent Amnesia Reversal” value (dose 10 mg/kg) came out at 27% and the “Percent Amnesia Reversal” value (dose 100 mg/kg) is 25%. Further, the “Percent Amnesia Reversal (Rating)” value (dose 1 mg/kg) is “A (40 percent or more (active = A))”, the “Percent Amnesia Reversal (Rating)” value (dose 10 mg/kg) is listed as “C (25 to 39 percent (borderline = C))” and the “Percent Amnesia Reversal (Rating)” value (dose 100 mg/kg) is listed as “C (25 to 39 percent (borderline = C))”.
With `Cc1nn(C)c(-n2c(C)cnc2CN(C)C)c1C(=O)c1ccccc1Cl` [Example 2], the “Percent Amnesia Reversal” value is recorded as 64% (dose 1 mg/kg), 64% (dose 10 mg/kg) and 85% (dose 100 mg/kg). In addition, the “Percent Amnesia Reversal (Rating)” value was “A (40 percent or more (active = A))” (dose 1 mg/kg), “A (40 percent or more (active = A))” (dose 10 mg/kg) and “A (40 percent or more (active = A))” (dose 100 mg/kg).
Turning to `Cc1nn(C)c(-n2c(CN3CCN(C)CC3)nc(C)c2C)c1C(=O)c1ccccc1Cl` [Example 4, (2-Chlorophenyl)[1,3-dimethyl-5-[4,5-dimethyl-2-[(4-mthyl-piperazin-1-yl)methyl]-1H-imidazol-1-yl]-1H-pyrazol-4-yl]methanone], the “Percent Amnesia Reversal” value (dose 1 mg/kg) is 36%, the “Percent Amnesia Reversal” value (dose 10 mg/kg) is on record as 91% and the “Percent Amnesia Reversal” value (dose 100 mg/kg) was determined as 54%. The “Percent Amnesia Reversal (Rating)” value (dose 1 mg/kg) is recorded as “C (25 to 39 percent (borderline = C))”, the “Percent Amnesia Reversal (Rating)” value (dose 10 mg/kg) is “A (40 percent or more (active = A))” and the “Percent Amnesia Reversal (Rating)” value (dose 100 mg/kg) is “A (40 percent or more (active = A))”.

These data come from patent EP0118205A1, “(5-(2-Aminomethyl-imidazol-1-yl)-1,3-dialkyl-1H-pyrazol-4-yl)(aryl)methanones and processes for their production” (WARNER-LAMBERT COMPANY, priority 1983, dated 1984).
